# Measurements from patent publication US20080064027A1, “TEL/Etv6-mediated inhibition of cell proliferation” (priority 2002, published 2008).
# Several values for one entry are separate records, joined by “and”; a condition that tells them apart may be missing. Identical values can stand only once. Like-named read-outs stand apart in the source and are kept apart here.
# Test system: Stat3-ER expressing A375 cells
# Assay type: cell-based
# Experimental: In order to understand Stat3's ability to affect cell proliferation and cell death, we have examined the profile of genes expressed upon Stat3 activation in A375 cells using oligonucleotide microarrays.
# Briefly, microarray analysis was performed using HG U95A GeneChips™ (Affymetrix, Santa Clara, USA) essentially according to the manufacturer's instructions. […] RNA from three independent experiments was pooled and biotin-labeled cRNA probes were generated from each sample starting from 10 μg of total cellular RNA. The resulting biotinylated cRNAs were hybridized to the Affymetrix U95A oligonucleotide array containing more than 12,000 sequences and signals detected. Chip analysis was performed using the Affymetrix Microarray Suite v5 (target intensity 500 used for chip scaling) and GeneSpring 4.2.1 (Silicon Genetics). Changes in gene expression were assessed by looking for concordant changes between replicates using a signed Wilcoxon rank test (as recommended by Affymetrix).
substance,measurement,setting,value
oncostatin M [OSM],expression change (fold): H. sapiens mRNA; cDNA DZFZp586N012,,1.5 and 1.6
same,expression change (fold): Absent in melanoma 2,Avge of clones,2.9
same,expression change (fold): Alpha-1-antichymotrypsin precursor,Avge of clones,2.8
same,expression change (fold): Aquaporin 3,Avge of clones,4.1
same,expression change (fold): Brain-derived neurotrophic factor,Avge of clones,4.8
same,"expression change (fold): CCAAT/enhancer binding protein (C/EBP), delta",Avge of clones,2.7
same,expression change (fold): Cathepsin L,Avge of clones,2.8
same,expression change (fold): Cytokine receptor-like factor 1,Avge of clones,1.9
same,expression change (fold): Death-associated protein kinase 1,Avge of clones,5.2
same,expression change (fold): Ephrin A1 precursor,Avge of clones,2.1
same,expression change (fold): Ets variant gene 6,Avge of clones,3.9
same,expression change (fold): Fibronectin,Avge of clones,2.0
same,"expression change (fold): Fibronectin 1, isoform 1 preproprotein",Avge of clones,1.6
same,"expression change (fold): Glycine dehydrogenase (decarboxylating, glycine decdarboxylase, glycine cleavage system protein P)",Avge of clones,2.5
same,expression change (fold): I factor (complement),Avge of clones,2.3
same,expression change (fold): Insulin-like growth factor binding protein 3,Avge of clones,2.4
same,expression change (fold): Intercellular adhesion molecule 1 precursor,Avge of clones,1.9
same,expression change (fold): Interferon induced transmembrane protein 1 (9-27),Avge of clones,1.4
same,expression change (fold): Interleukin 8,Avge of clones,0.5
same,expression change (fold): Jun B proto-oncogene,Avge of clones,2.5
same,expression change (fold): KIAA0161 gene product,Avge of clones,1.6
same,expression change (fold): KIAA0303 protein,Avge of clones,3.5
same,expression change (fold): KIAA0500 protein,Avge of clones,3.0
same,"expression change (fold): Killer cell lectin-like receptor subfamily C, member 2",Avge of clones,2.7
same,"expression change (fold): Killer cell lectin-like receptor subfamily C, member 3 isoform NKG2-E",Avge of clones,3.6
same,expression change (fold): Kynureninase (L-kynurenine hydrolase),Avge of clones,2.2
same,expression change (fold): MHC class II transactivator,Avge of clones,3.0
same,"expression change (fold): MHC, class II, DQ alpha 1 precursor",Avge of clones,2.4
same,"expression change (fold): MHC, class II, DQ beta 1",Avge of clones,2.5
same,expression change (fold): Major vault protein,Avge of clones,2.7
same,expression change (fold): Nicotinamide N-methyltransferase,Avge of clones,2.4
same,"expression change (fold): Niemann-Pick disease, type C1",Avge of clones,2.1
same,expression change (fold): Oncostatin M receptor,Avge of clones,2.0
same,expression change (fold): Osteoprotegrin,Avge of clones,2.9
same,expression change (fold): Prostatic acid phosphatase precursor,Avge of clones,7.4
same,expression change (fold): Ras-induced senescence 1,Avge of clones,1.8
same,"expression change (fold): Regenerating islet-derived 1 alpha (pancreatic stone protein, pancreatic thread protein)",Avge of clones,3.0
same,expression change (fold): Regulator of G protein signalling 16,Avge of clones,2.9
same,expression change (fold): STAT induced STAT inhibitor 3,Avge of clones,10.7
same,"expression change (fold): Secreted phosphoprotein 1 (osteopontin, bone sialoprotein 1, early T-lymphocyte activation 1)",Avge of clones,7.5
same,"expression change (fold): Serine (or cysteine) protease inhibitor, clade B (ovalbumin), member 3",Avge of clones,27.8
same,expression change (fold): Small inducible cytokine A2 (monocyte chemotactic protein 1),Avge of clones,1.2
same,"expression change (fold): Solute carrier family 2 (facilitated glucose transporter), member 3",Avge of clones,2.3
same,expression change (fold): Stanniocalcin 1,Avge of clones,3.7
same,expression change (fold): Tyrosine phosphatase/TIGR = HG620-HT620,Avge of clones,1.2
same,expression change (fold): v-fos FBJ murine osteosarcoma viral gene homologue,Avge of clones,3.7
same,expression change (fold): v-jun avian sarcoma virus 17 oncogene homologue,Avge of clones,1.2
same,expression change (fold): v-maf musculoaponeurotic fibrosarcoma oncogene homologue (avian),Avge of clones,3.0
same,expression change (fold): Aquaporin 3,"Avge of clones, 2nd listing",8.0
same,"expression change (fold): Fibronectin 1, isoform 1 preproprotein","Avge of clones, 2nd listing",1.5
same,expression change (fold): Insulin-like growth factor binding protein 3,"Avge of clones, 2nd listing",2.0
same,expression change (fold): Interleukin 8,"Avge of clones, 2nd listing",0.9
same,expression change (fold): Kynureninase (L-kynurenine hydrolase),"Avge of clones, 2nd listing",1.5
same,expression change (fold): Oncostatin M receptor,"Avge of clones, 2nd listing",1.9
same,expression change (fold): Prostatic acid phosphatase precursor,"Avge of clones, 2nd listing",1.3
same,"expression change (fold): Secreted phosphoprotein 1 (osteopontin, bone sialoprotein 1, early T-lymphocyte activation 1)","Avge of clones, 2nd listing",4.6
same,expression change (fold): v-jun avian sarcoma virus 17 oncogene homologue,"Avge of clones, 2nd listing",1.5
same,expression change (fold): Kynureninase (L-kynurenine hydrolase),"Avge of clones, 3rd listing",1.7
same,expression change (fold): Absent in melanoma 2,Clone1,2.7
same,expression change (fold): Alpha-1-antichymotrypsin precursor,Clone1,3.1
same,expression change (fold): Aquaporin 3,Clone1,4.5
same,expression change (fold): Brain-derived neurotrophic factor,Clone1,4.8
same,"expression change (fold): CCAAT/enhancer binding protein (C/EBP), delta",Clone1,3.9
same,expression change (fold): Cathepsin L,Clone1,2.3
same,expression change (fold): Cytokine receptor-like factor 1,Clone1,3.0
same,expression change (fold): Death-associated protein kinase 1,Clone1,3.5
same,expression change (fold): Ephrin A1 precursor,Clone1,1.3
same,expression change (fold): Ets variant gene 6,Clone1,3.9
same,expression change (fold): Fibronectin,Clone1,0.9
same,"expression change (fold): Fibronectin 1, isoform 1 preproprotein",Clone1,1.2
same,"expression change (fold): Glycine dehydrogenase (decarboxylating, glycine decdarboxylase, glycine cleavage system protein P)",Clone1,2.5
same,expression change (fold): I factor (complement),Clone1,2.5
same,expression change (fold): Insulin-like growth factor binding protein 3,Clone1,2.6
same,expression change (fold): Intercellular adhesion molecule 1 precursor,Clone1,1.7
same,expression change (fold): Interferon induced transmembrane protein 1 (9-27),Clone1,2.2
same,expression change (fold): Interleukin 8,Clone1,0.4
same,expression change (fold): Jun B proto-oncogene,Clone1,2.7
same,expression change (fold): KIAA0161 gene product,Clone1,1.5
same,expression change (fold): KIAA0303 protein,Clone1,4.5
same,expression change (fold): KIAA0500 protein,Clone1,2.3
same,"expression change (fold): Killer cell lectin-like receptor subfamily C, member 2",Clone1,4.3
same,"expression change (fold): Killer cell lectin-like receptor subfamily C, member 3 isoform NKG2-E",Clone1,6.7
same,expression change (fold): Kynureninase (L-kynurenine hydrolase),Clone1,2.6
same,expression change (fold): MHC class II transactivator,Clone1,3.4
same,"expression change (fold): MHC, class II, DQ alpha 1 precursor",Clone1,2.5
same,"expression change (fold): MHC, class II, DQ beta 1",Clone1,2.4
